How the values were obtained:
Format in all cases: biochemical
recombinant Aurora A = target: T1, recombinant Aurora A (Homo sapiens, UniProt O14965); assay: Aurora A (Aurora 2) inhibition assay, Z'-Lyte kinase assay; details: ATP 10 μM, 1 h; less than or equal to 100 nM
T1 construct: purchased Upstate, Lake Placid, N.Y
T1 sequence (O14965 1-403): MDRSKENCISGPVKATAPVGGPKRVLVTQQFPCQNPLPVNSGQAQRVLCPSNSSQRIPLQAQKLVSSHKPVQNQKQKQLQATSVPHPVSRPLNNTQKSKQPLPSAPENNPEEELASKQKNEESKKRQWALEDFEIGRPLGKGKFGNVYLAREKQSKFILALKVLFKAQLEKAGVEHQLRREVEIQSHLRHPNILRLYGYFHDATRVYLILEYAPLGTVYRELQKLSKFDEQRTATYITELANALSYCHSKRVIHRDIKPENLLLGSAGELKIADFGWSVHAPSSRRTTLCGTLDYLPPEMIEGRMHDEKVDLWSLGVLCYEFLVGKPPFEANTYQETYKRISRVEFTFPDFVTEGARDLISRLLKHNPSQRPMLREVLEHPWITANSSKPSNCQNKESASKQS
Procedure: Compounds were tested for their potency against recombinant Aurora A (Upstate, Lake Placid, N.Y.) using the PanVera Z′-Lyte kinase assay kit-Ser/Thr 1 peptide (Invitrogen, Carlsbad, Calif.). Assays were carried out in kinase assay buffer (50 mM HEPES, pH 7.5, 10 mM MgCl2, 5 mM EGTA, 0.05% Brij-35, 2 mM DTT). Test compounds were initially dissolved in DMSO at 100× the highest tested concentration, then serially diluted to 4× test concentrations in kinase assay buffer. Next, Aurora A (final concentration 200-500 ng/mL), Z′-Lyte Ser/Thr 1 peptide (final concentration 2 μM) and ATP (final concentration 10 μM) were added according to the manufacturer's instructions. Assays were carried out in half-area 96-well white polystyrene assay plates (Corning, Corning, N.Y.) in a final volume of 20 μl. The reaction was allowed to proceed for 1 h at room temperature in the dark, at which point the development reagent and stop reagent were added according to the manufacturer's instructions. Coumarin (Ex. 400 nm, Em. 465 nm) and fluorescein (Ex. 400 nm, Em. 565 nm) fluorescence values were measured on a SpectraFluor Plus plate reader (Tecan, Durham, N.C.). The emission ratio (coumarin/fluorescein) was determined and used to calculate the percent phosphorylation for each well. Wells containing substrate but no kinase and wells containing a phosphopeptide control were used to set 0% and 100% phosphorylation values, respectively. Typically 20-40% of the substrate was phosphorylated in wells without inhibitor. Dose-response curves of relative Aurora A activity vs. inhibitor concentration were plotted with Grafit (Erithacus Software, Horley, Surrey, UK).

Aurora B kinase = target: T2, Aurora B kinase (Homo sapiens, UniProt Q96GD4); assay: Aurora B (Aurora 1) inhibition assay, Z'-Lyte kinase assay; details: ATP 50 μM, 16 h; less than or equal to 100 nM
T2 construct: purchased BPS Biosciences, San Diego, Calif

[1] = target: T3, N-terminal GST-tagged recombinant human Flt3, residues 564-end (Homo sapiens, UniProt P36888); assay: Flt3 kinase inhibition assay (33P-ATP filter assay); details: 40 minutes, room temperature; less than or equal to 100 nM
T3 construct: recombinant human Flt3, residues 564-end; GST (N); purchased Upstate USA Inc, Charlottesville, Va
T3 sequence (P36888 564-993 limits assumed): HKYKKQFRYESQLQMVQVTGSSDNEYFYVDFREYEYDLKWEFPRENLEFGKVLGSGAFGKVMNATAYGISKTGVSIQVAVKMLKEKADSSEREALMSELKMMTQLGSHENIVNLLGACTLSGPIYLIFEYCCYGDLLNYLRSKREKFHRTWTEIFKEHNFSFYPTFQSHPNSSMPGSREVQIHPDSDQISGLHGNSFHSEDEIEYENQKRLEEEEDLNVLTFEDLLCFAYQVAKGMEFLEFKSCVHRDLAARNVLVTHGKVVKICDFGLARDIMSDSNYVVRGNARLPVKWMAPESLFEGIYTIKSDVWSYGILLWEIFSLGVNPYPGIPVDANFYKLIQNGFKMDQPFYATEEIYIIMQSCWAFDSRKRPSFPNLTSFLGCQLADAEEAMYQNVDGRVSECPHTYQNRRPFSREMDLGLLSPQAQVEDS
Procedure: (§1) Compounds were assayed for Flt3 kinase inhibitory activity using N-terminal GST-tagged recombinant human Flt3, residues 564-end (Upstate USA Inc, 706 Forest Street, Charlottesville, Va.). Serial dilutions of compound were assayed in a final reaction volume of 25 μL by incubating a solution of the above Flt3 kinase (5-10 mU), 8 mM MOPS (3-(N-morpholino)propanesulfonic acid) pH 7.0, 0.2 mM EDTA (ethylenediamine tetracetic acid), 50 μM amino acid sequence EAIYAAPFAKKK (Upstate USA Inc, 706 Forest Street, Charlottesville, Va.), and 10 mM magnesium acetate and [γ-^33P-ATP] (specific activity of about 500 cpm/pmol, concentration as required). The reaction was initiated by the addition of the magnesium acetate and [γ-^33P-ATP] mixture. After incubation for 40 minutes at room temperature, the reaction was stopped by the addition of 5 μL of a 3% phosphoric acid solution. A 10 μL aliquote of the reaction was then spotted onto a P30 filtermat (PerkinElmer, Wellesley, Mass.) and washed three times for five minutes in 75 mM phosphoric acid and once in methanol prior to drying and scintillation counting. Inhibition of Flt3 activity was determined by comparison to assays that contained no inhibitor.

[2] = target: T4, N-terminal His-tagged human Src (Homo sapiens, UniProt P12931); assay: Src kinase inhibition assay (33P-ATP filter assay); details: 40 minutes, room temperature; less than or equal to 100 nM
T4 construct: His (N); purchased Upstate USA Inc, Charlottesville, Va
Procedure: Compounds were assayed for Src kinase inhibitory activity using N-terminal His-tagged human Src (Upstate USA Inc, 706 Forest Street, Charlottesville, Va.). Serial dilutions of compound were assayed in a final reaction volume of 25 μL by incubating a solution of the above Src kinase (5-10 mU), 8 mM MOPS (3-(N-morpholino)propanesulfonic acid) pH 7.0, 0.2 mM EDTA (ethylenediamine tetracetic acid), 250 μM amino acid sequence KVEKIGEGTYGVVYK (Upstate USA Inc, 706 Forest Street, Charlottesville, Va.), and 10 mM magnesium acetate and [γ-^33P-ATP] (specific activity of about 500 cpm/pmol, concentration as required). The reaction was initiated by the addition of the magnesium acetate and [γ-^33P-ATP] mixture. After incubation for 40 minutes at room temperature, the reaction was stopped by the addition of 5 μL of a 3% phosphoric acid solution. A 10 μL aliquote of the reaction was then spotted onto a P30 filtermat (PerkinElmer, Wellesley, Mass.) and washed three times for five minutes in 75 mM phosphoric acid and once in methanol prior to drying and scintillation counting. Inhibition of Src activity was determined by comparison to assays that contained no inhibitor.

[3] = target: T5, N-terminal His6-tagged recombinant human KDR, residues 790-end (Homo sapiens, UniProt P35968); assay: KDR kinase inhibition assay (33P-ATP filter assay); details: 40 minutes, room temperature; less than or equal to 100 nM
T5 construct: recombinant human KDR, residues 790-end; His6 (N); purchased Upstate USA Inc, Charlottesville, Va
Procedure: as §1, with “KDR” for “Flt3”, “His6-tagged” for “GST-tagged”, “KDR,” for “Flt3,”, “790-end” for “564-end”, “0.33 mg/mL myelin basic protein” for “50 μM amino acid sequence EAIYAAPFAKKK”

Measured: IC50

T4 sequence (P12931 whole entry): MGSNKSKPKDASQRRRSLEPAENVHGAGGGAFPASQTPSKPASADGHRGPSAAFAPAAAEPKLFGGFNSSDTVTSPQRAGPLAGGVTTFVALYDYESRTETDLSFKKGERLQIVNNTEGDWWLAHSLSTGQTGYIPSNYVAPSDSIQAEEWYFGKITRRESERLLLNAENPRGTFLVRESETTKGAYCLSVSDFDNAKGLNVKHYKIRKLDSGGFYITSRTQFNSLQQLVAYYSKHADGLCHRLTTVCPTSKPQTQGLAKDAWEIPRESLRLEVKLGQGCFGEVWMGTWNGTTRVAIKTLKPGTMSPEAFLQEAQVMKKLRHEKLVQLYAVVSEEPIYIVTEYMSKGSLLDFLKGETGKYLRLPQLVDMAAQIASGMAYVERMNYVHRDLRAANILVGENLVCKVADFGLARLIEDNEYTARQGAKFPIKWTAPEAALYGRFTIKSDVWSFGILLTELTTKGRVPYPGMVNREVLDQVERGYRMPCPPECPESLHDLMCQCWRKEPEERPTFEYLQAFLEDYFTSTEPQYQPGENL
T5 sequence (P35968 790-1356 limits assumed): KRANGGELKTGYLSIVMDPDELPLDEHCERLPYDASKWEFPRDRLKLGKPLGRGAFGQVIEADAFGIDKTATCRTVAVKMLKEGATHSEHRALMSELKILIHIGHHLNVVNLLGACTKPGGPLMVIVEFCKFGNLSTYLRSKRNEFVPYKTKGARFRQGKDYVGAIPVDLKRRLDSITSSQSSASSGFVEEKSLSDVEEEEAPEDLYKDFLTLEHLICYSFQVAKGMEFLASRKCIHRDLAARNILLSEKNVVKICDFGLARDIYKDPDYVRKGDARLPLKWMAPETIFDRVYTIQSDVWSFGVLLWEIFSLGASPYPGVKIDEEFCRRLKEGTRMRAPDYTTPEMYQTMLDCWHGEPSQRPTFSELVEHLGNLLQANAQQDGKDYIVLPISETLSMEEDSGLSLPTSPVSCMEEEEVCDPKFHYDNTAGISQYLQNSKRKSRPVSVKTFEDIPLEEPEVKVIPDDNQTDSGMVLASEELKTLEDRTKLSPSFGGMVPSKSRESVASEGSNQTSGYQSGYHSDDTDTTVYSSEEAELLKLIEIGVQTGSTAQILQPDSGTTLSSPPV
T2 sequence (Q96GD4 whole entry): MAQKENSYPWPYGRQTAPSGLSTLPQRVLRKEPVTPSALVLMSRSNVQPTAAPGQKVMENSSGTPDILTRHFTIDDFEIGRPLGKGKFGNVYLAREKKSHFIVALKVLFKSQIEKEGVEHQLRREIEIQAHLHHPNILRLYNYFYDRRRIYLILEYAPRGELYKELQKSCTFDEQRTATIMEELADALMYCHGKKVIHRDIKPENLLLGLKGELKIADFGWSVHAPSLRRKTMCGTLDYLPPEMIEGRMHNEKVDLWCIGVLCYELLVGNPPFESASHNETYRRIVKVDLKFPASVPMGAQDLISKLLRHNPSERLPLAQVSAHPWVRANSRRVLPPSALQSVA

Cc1cc(Nc2cc(N3CC(O)(C4CC4)C3)nc(/C=C/c3ccccc3)n2)n[nH]1 [Compound 3, (E)-3-cyclopropyl-1-(6-(5-methyl-1H-pyrazol-3-ylamino)-2-styrylpyrimidin-4-yl)azetidin-3-ol]
≤ 100 nM: all assays above

Cc1cc(Nc2cc(N3CCC(N4CCOCC4)CC3)nc(/C=C/c3ccccc3)n2)n[nH]1 [Compound 7, (E)-N-(5-methyl-1H-pyrazol-3-yl)-6-(4-morpholinopiperidin-1-yl)-2-styrylpyrimidin-4-amine]
≤ 100 nM: all assays above

Cc1cc(Nc2cc(N3CCN(CC4CCCO4)CC3)nc(/C=C/c3ccccc3)n2)n[nH]1 (stereo not drawn) [Compound 24, (E)-N-(5-methyl-1H-pyrazol-3-yl)-2-styryl-6-(4-((tetrahydrofuran-2-yl)methyl)piperazin-1-yl)pyrimidin-4-amine]
not listed: Aurora B kinase
≤ 100 nM: all other assays above

Cc1cc(Nc2cc(N3CCC(CN4CCCCC4)CC3)nc(/C=C/c3ccccc3)n2)n[nH]1 [Compound 30]
not listed: Aurora B kinase
≤ 100 nM: all other assays above

Source: patent US20110318393A1, “Substituted Pyrazole Compounds” (MIIKANA THERAPEUTICS, INC., priority 2008, published 2011)
